In patent US6482982B1, “Halogenated antituberculosis agents” (University of Sciences of Philadelphia, priority 2001, dated 2002):
≈ marks a conversion by molar mass, not a printed value. Where “and” joins values, the source holds several entries; their conditions need not be identical. Equal values may be shown once. Read-outs that look alike come from different tables or passages of the source.

Legend:
[1] = system: Mycobacterium tuberculosis H37Rv (ATCC 27294); assay: Primary screening of anti-mycobacterial activity (Bactec); type: cell-based; set-up: % inhibition: concentration or dose not given beside the values; conditions: for MIC: Mycobacterium tuberculosis
M. tuberculosis H37Rv [2] = assay: MIC determination by Microplate Alamar Blue Assay (MABA) against H37Rv; type: cell-based, Mycobacterium tuberculosis; conditions: for MIC: Mycobacterium tuberculosis
M. tuberculosis Erdman = assay: MIC (MABA) against M. tuberculosis Erdman; type: cell-based; conditions: Mycobacterium tuberculosis, Alamar assay
M. tuberculosis H37Rv [3] = assay: Minimum bactericidal concentration (MBC) against H37Rv; type: cell-based, Mycobacterium tuberculosis
VERO cells [4] = conditions: for SI (selectivity index, IC50:MIC ratio): IC50 in VERO cells to MIC H37Rv
VERO cells [5] = assay: cells; conditions: Chlorocebus sabaeus
[6] = system: M. tuberculosis Erdman (ATCC 35801); assay: Killing of M. tuberculosis Erdman in monolayers of mouse bone marrow macrophages
Procedure: Compounds were then tested for killing of M. tuberculosis Erdman (ATCC 35801) in monolayers of mouse bone marrow macrophages.

[7] = preliminary anti-TB test (primary screening), Bactec assay, read-out: MIC
[8] = preliminary anti-TB test (primary screening), Bactec assay
[9] = H37RV, comparison with parent drug, read-out: MIC against M. tuberculosis H37Rv (determined by MABA system)
[10] = Alamar assay, actual MIC at lower concentrations, H37Rv, read-out: MIC
[11] = read-out: IC50 (overt toxicity)
[12] = read-out: IC50 (reference drugs, Comments column)

## CC(=O)Nc1ccc(/C=N/NC(N)=S)cc1Br [Compound 29, 4-Acetamido-3-bromobenzaldehyde thiosemicarbazone]
[1]; [7]
  MIC: < 6.25 µg/mL
[1]; [8]
  Activity: Positive

## Nc1cc(O)c(C(=O)O)cc1F [Compound 12, 4-Amino-5-fluorosalicylic Acid]
[1]
  MIC: < 12.5 µg/mL
[1]; [8]
  % inhibition: 94%
  Activity: Positive
M. tuberculosis H37Rv [2]; Alamar assay, H37Rv
  % inh.: 94%
M. tuberculosis H37Rv [2]; [9]
  MIC: ≤ 3.13 µg/mL
M. tuberculosis H37Rv [2]; [10]
  MIC: 6.25 µg/mL (≈ 36.5 µM)
M. tuberculosis Erdman
  MIC: 12.5 µg/mL (≈ 73 µM)
M. tuberculosis H37Rv [3]
  H37Rv MBC: > 200 µg/mL
VERO cells [4]
  SI (selectivity index, IC50:MIC ratio): >10
VERO cells [5]; [11]
  IC50: > 62.5 µg/mL

## thiacetazone [reference compound]
M. tuberculosis H37Rv [2]; comparison with parent drug
  MIC against M. tuberculosis H37Rv (determined by MABA system): > 2.0 µg/mL

## CC(=O)Nc1ccc(/C=N/NC(N)=S)cc1Cl [Compound 25, 4-Acetamido-3-chlorobenzaldehyde thiosemicarbazone]
[1]; [7]
  MIC: < 6.25 µg/mL
[1]; [8]
  Activity: Positive

## CC(=O)Nc1ccc(/C=N/NC(N)=S)cc1F [Compound 16, 4-Acetamido-3-fluorobenzaldehyde thiosemicarbazone]
[1]; [7]
  MIC: < 12.5 µg/mL
[1]; [8]
  % inhibition: 99% and > 90%
  Activity: Positive
M. tuberculosis H37Rv [2]; Alamar assay, H37Rv
  % inh.: 99%
M. tuberculosis H37Rv [2]; [9]
  MIC: ≤ 0.1 µg/mL
M. tuberculosis H37Rv [2]; [10]
  MIC: 0.2 µg/mL (≈ 0.787 µM)
M. tuberculosis H37Rv [2]; general statement
  activity against M. Tuberculosis (in words): highly active
M. tuberculosis Erdman
  MIC: 0.2 µg/mL (≈ 0.787 µM)
M. tuberculosis H37Rv [3]
  H37Rv MBC: 6.25 µg/mL
VERO cells [4]
  SI (selectivity index, IC50:MIC ratio): > 312.5
VERO cells [4]; listed as Comp. 16
  SI (selectivity index, IC50:MIC ratio): >312.5
VERO cells [4]; general statement
  toxicity (in words): non-toxic
VERO cells [5]; [11]
  IC50: > 62.5 µg/mL
[6]; 99% reduction in colony forming units at seven days, mouse bone marrow macrophages
  EC99: >3.2
[6]; Mycobacterium tuberculosis, ATCC35801|ERDMAN, Bone marrow macrophage, in Mus musculus, 168 h
  EC90: 1.7 µg/mL (≈ 6.69 µM)

## CC(=O)Nc1ccc(/C=N/NC(N)=S)cc1I [Compound 34, 4-Acetamido-3-iodobenzaldehyde thiosemicarbazone]
[1]; [7]
  MIC: < 6.25 µg/mL
[1]; [8]
  Activity: Positive

## CC(=O)Nc1ccc(/C=N/NC(N)=S)c(F)c1 [Compound 17, 4-Acetamido-2-fluorobenzaldehyde thiosemicarbazone]
[1]; [7]
  MIC: < 6.25 µg/mL
[1]; [8]
  Activity: Positive

## NNC(=O)c1ccncc1 [INH, isoniazid, reference compound]
VERO cells [5]; [12]
  IC50: 602 µg/mL (≈ 4390 µM)

## Nc1ccc(C(=O)O)c(O)c1 [p-aminosalicylic acid, reference compound]
M. tuberculosis H37Rv [2]; [9]
  MIC: 1.25 µg/mL (≈ 8.16 µM)

## CO[C@H]1/C=C/O[C@@]2(C)Oc3c(C)c(O)c4c(O)c(c(/C=N/N5CCN(C)CC5)c(O)c4c3C2=O)NC(=O)/C(C)=C\C=C\[C@H](C)[C@H](O)[C@@H](C)[C@@H](O)[C@@H](C)[C@H](OC(C)=O)[C@@H]1C [rifampicin, reference compound]
M. tuberculosis H37Rv [2]; [10]
  MIC: 0.015 µg/mL (≈ 0.0182 µM)
VERO cells [5]; [12]
  IC50: 77.7 µg/mL (≈ 94.4 µM)

## COC(=O)c1cc(F)c(NC(C)=O)cc1O [Compound 11, Methyl 4-acetamido-5-fluorosalicylate]
[1]; [7]
  MIC: > 12.5 µg/mL
[1]; [8]
  % inhibition: 0%
  Activity: Negative
